Experimental data: paper PMC7358528, “Tuning Scorpion Toxin Selectivity: Switching From KV1.1 to KV1.3” (Frontiers in Pharmacology, 2020)
Where two headings read alike, the source gives them in different places. Where a SMILES comes first, the peptide text is derived from it. Bridges are numbered along the chain shown (N, C = ends).

Tests used:
[1] = molecular target: T1, KV1.2 (Rattus norvegicus, UniProt P63142); assay: Two-electrode voltage clamp on KV1.2 expressed in Xenopus oocytes; format: cell-based
T1 construct: expressed in transfected cells; host or cells: Xenopus laevis oocytes injected with cRNA
Procedure: (§1) Ion Channel Expression in Xenopus Oocytes
(§2) The major pipeline of ion channel expression in oocytes was described previously ([Peigneur et al., 2011]). Briefly, for the expression of KV genes (rat (r)KV1.1, rKV1.2, human (h)KV1.3, rKV1.4, rKV1.5, and rKV1.6) in Xenopus laevis oocytes, linearized plasmids containing the respective gene sequences were transcribed using the T7 mMESSAGE-mMACHINE transcription kit (Ambion). 50 nl of cRNA solution (1 ng/nl) were injected into oocytes using a micro-injector (Drummond Scientific). The oocytes were incubated in ND96 solution: 96 mM NaCl, 2 mM KCl, 1.8 mM CaCl2, 2 mM MgCl2 and 5 mM HEPES, pH 7.4, supplemented with 50 mg/l gentamycin sulfate.
(§3) Electrophysiological Recordings
(§4) Two-electrode voltage-clamp recordings were performed at room temperature (18–22°C) using a Geneclamp 500 amplifier (Molecular Devices) controlled by a pClamp data acquisition system (Axon Instruments) as described ([Peigneur et al., 2011]). Bath solution composition was ND96. KV currents were evoked by 250-ms depolarization to 0 mV from a holding potential of −90 mV, followed by 250-ms pulses to −50 mV. For current–voltage relationship studies, currents were evoked by 10-mV depolarization steps. Concentration–response curves were constructed, in which the percentage of current inhibition was plotted as a function of toxin concentration. Data were fitted with the Hill equation: y = 100/[1 + (IC50/[toxin])^h], where y is the amplitude of the toxin-induced effect, [toxin] is toxin concentration, and h is the Hill coefficient. Comparison of two sample means was performed using a paired Student’s t-test (p-value of 0.05 was used as a threshold of significance). All data were obtained in at least three independent experiments (n ≥ 3) and are presented as mean ± standard error of the mean.

[2] = molecular target: T2, KV1.3 (Homo sapiens, UniProt P22001); assay: Two-electrode voltage clamp on KV1.3 expressed in Xenopus oocytes; format: cell-based; parameters: expressed in transfected cells; host or cells: Xenopus laevis oocytes injected with cRNA; conditions: for inhibition at 0.01 µM: 10 nM, KV1.3, Xenopus oocytes, read-out: inhibition of potassium current
Procedure: as §1, §2, §3, §4

[3] = molecular target: T3, KV1.1 (Rattus norvegicus, UniProt P10499); assay: Two-electrode voltage clamp on KV1.1 expressed in Xenopus oocytes; format: cell-based; conditions: for IC50: rKV1.1, Xenopus oocytes, two-electrode voltage clamp, ND96 pH 7.4, 18–22°C, 0 mV from −90 mV
T3 construct: expressed in transfected cells; host or cells: Xenopus laevis oocytes injected with cRNA
Procedure: as §1, §2, §3, §4

[4] = molecular target: T4, KV1.6 (Rattus norvegicus, UniProt P17659); assay: Two-electrode voltage clamp on KV1.6 expressed in Xenopus oocytes; format: cell-based; conditions: mean ± SEM, n ≥ 3
T4 construct: expressed in transfected cells; host or cells: Xenopus laevis oocytes injected with cRNA
Procedure: as §1, §2, §3
(§5) Two-electrode voltage-clamp recordings were performed at room temperature (18–22°C) using a Geneclamp 500 amplifier (Molecular Devices) controlled by a pClamp data acquisition system (Axon Instruments) as described ([Peigneur et al., 2011]). Bath solution composition was ND96. KV currents were evoked by 250-ms depolarization to 0 mV from a holding potential of −90 mV, followed by 250-ms pulses to −50 mV. For current–voltage relationship studies, currents were evoked by 10-mV depolarization steps. Concentration–response curves were constructed, in which the percentage of current inhibition was plotted as a function of toxin concentration. […]

[5] = molecular target: T5, KV1.4 (Rattus norvegicus, UniProt P15385); assay: Two-electrode voltage clamp on KV1.4 expressed in Xenopus oocytes; format: cell-based; conditions: rKV1.4, Xenopus oocytes, up to 1 µM
T5 construct: expressed in transfected cells; host or cells: Xenopus laevis oocytes injected with cRNA
Procedure: as §1, §2, §3, §5

[6] = molecular target: T6, KV1.5 (Rattus norvegicus, UniProt P19024); assay: Two-electrode voltage clamp on KV1.5 expressed in Xenopus oocytes; format: cell-based; conditions: rKV1.5, Xenopus oocytes, up to 1 µM
T6 construct: expressed in transfected cells; host or cells: Xenopus laevis oocytes injected with cRNA
Procedure: as §1, §2, §3, §5

[7] = molecular target: rat KV1.1 (rat) (UniProt P10499)
[8] = molecular target: rat KV1.6 (rat) (UniProt P17659)
[9] = molecular target: rat KV1.2 (rat) (UniProt P63142)
[10] = molecular target: rat KV1.1 (rat) (UniProt P10499); remark: listed apart in the source
[11] = molecular target: T2, KV1.3
[12] = molecular target: rat KV1.6 (rat) (UniProt P17659); remark: listed apart in the source
[13] = molecular target: rat KV1.2 (rat) (UniProt P63142); remark: listed apart in the source
[14] = molecular target: T2, KV1.3; remark: listed apart in the source
[15] = molecular target: rat KV1.1 (rat) (UniProt P10499); remark: listed apart in the source

T2 sequence (P22001 whole entry): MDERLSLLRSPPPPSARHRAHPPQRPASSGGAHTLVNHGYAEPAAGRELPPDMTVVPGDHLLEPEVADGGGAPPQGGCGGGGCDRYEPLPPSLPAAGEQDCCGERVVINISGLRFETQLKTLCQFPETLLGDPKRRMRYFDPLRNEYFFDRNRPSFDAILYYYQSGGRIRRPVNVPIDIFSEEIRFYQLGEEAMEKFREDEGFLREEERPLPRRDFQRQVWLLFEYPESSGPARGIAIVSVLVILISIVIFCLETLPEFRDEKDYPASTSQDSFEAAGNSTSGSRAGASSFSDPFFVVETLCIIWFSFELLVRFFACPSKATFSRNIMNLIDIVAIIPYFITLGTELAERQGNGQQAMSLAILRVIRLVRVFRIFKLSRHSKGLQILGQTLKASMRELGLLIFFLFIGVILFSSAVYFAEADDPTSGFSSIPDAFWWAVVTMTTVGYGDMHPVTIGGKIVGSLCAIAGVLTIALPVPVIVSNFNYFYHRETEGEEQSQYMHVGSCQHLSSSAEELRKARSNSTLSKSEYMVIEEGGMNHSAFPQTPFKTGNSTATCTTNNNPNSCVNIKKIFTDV
T1 sequence (P63142 whole entry): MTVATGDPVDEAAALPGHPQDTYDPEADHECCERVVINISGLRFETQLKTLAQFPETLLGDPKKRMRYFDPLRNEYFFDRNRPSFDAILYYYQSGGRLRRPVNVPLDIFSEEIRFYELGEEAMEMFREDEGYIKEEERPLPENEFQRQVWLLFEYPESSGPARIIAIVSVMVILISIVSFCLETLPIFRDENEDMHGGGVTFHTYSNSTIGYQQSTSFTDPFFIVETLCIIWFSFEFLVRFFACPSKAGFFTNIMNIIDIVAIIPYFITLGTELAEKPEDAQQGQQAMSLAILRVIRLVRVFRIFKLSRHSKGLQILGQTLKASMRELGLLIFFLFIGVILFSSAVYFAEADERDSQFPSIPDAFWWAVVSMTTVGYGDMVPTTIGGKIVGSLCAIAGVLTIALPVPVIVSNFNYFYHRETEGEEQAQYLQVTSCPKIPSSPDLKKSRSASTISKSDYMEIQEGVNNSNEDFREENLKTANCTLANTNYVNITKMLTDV
Sequence of rat KV1.1 (rat) (P10499 whole entry): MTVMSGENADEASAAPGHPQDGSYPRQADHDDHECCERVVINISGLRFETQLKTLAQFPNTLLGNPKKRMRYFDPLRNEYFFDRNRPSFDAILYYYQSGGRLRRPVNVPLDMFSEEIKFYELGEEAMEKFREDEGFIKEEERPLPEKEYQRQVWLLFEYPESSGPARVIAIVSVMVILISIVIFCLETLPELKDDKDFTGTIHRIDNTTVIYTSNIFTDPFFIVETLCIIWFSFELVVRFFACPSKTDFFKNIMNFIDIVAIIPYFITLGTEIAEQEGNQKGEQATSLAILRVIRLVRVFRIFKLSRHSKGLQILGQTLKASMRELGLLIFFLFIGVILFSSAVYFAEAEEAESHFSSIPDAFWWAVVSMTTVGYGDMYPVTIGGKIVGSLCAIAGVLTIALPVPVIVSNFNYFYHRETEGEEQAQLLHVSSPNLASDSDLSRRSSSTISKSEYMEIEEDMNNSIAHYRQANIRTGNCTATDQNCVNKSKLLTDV
T3 sequence (P10499 whole entry): as above
Sequence of rat KV1.2 (rat) (P63142 whole entry): as the sequence (P63142 whole entry) above
T4 sequence (P17659 whole entry): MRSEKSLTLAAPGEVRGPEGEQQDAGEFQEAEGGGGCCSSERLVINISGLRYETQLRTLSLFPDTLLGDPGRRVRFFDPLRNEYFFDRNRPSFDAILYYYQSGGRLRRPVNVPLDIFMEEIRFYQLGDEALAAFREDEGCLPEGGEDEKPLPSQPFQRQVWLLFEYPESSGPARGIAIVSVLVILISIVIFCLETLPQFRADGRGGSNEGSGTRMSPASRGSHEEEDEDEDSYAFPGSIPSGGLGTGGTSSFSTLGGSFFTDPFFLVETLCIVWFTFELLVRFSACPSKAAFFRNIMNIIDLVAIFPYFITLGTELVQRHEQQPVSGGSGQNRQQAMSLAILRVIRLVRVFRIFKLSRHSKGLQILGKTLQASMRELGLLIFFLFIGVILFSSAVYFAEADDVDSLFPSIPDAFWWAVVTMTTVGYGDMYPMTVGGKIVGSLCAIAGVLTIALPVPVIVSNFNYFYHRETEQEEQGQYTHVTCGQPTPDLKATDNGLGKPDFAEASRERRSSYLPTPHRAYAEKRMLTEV
Sequence of rat KV1.6 (rat) (P17659 whole entry): as above
T5 sequence (P15385 whole entry): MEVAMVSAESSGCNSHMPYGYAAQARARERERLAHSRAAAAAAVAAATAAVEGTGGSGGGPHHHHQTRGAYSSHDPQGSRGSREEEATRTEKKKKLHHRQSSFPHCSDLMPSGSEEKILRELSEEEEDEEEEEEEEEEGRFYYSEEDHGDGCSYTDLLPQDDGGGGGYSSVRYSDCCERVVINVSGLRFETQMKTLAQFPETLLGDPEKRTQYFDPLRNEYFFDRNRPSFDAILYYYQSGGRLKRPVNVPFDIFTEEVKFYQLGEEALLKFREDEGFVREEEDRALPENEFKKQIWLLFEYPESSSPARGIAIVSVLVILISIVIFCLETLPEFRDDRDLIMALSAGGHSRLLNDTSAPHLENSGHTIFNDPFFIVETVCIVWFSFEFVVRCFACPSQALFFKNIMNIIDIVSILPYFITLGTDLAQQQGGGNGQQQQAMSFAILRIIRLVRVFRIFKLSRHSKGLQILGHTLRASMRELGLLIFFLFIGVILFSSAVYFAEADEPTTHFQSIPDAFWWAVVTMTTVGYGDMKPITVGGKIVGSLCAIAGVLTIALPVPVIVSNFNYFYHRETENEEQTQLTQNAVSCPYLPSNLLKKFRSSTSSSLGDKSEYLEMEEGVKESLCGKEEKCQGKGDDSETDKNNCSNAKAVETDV
T6 sequence (P19024 whole entry): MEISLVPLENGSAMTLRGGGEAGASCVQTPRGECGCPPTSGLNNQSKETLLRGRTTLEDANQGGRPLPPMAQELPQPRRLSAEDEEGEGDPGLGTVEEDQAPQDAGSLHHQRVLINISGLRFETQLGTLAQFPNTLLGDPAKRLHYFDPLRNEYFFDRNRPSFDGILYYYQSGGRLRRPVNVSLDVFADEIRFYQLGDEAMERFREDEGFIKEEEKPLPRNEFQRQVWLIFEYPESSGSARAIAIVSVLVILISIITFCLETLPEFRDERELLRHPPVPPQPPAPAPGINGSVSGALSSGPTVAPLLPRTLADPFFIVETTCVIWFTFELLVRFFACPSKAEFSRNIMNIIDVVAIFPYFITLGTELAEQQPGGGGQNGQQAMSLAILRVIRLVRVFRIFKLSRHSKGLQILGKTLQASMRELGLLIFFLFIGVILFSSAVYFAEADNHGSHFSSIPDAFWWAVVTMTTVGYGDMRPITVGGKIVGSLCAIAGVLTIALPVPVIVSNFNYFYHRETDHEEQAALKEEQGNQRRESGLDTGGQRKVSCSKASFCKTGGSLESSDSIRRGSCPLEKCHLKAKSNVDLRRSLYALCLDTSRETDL

Q: With `CC[C@H](C)[C@H](NC(=O)CNC(=O)[C@@H](N)C(C)C)C(=O)N[C@@H](CC(N)=O)C(=O)N[C@H](C(=O)N[C@@H](CCCCN)C(=O)N[C@H]1CSSC[C@@H]2NC(=O)[C@H](CCCCN)NC(=O)CNC(=O)[C@H](Cc3ccccc3)NC(=O)[C@H](CCCNC(=N)N)NC(=O)[C@H](CCSC)NC(=O)CNC(=O)[C@H](C)NC(=O)[C@H](CC(=O)O)NC(=O)[C@H](CCCCN)NC(=O)[C@@H]3CSSC[C@@H](C(=O)N[C@H](C(=O)N4CCC[C@H]4C(=O)N[C@@H](CCCCN)C(N)=O)[C@@H](C)O)NC(=O)[C@H](CC(=O)O)NC(=O)[C@H](CSSC[C@H](NC(=O)[C@H](CCC(N)=O)NC(=O)CNC(=O)[C@H](CO)NC(=O)[C@H](Cc4c[nH]cn4)NC(=O)[C@H](CCCCN)NC1=O)C(=O)N[C@@H](CC(C)C)C(=O)N[C@@H](CCCCN)C(=O)N1CCC[C@H]1C(=O)N3)NC(=O)[C@H](CCCCN)NC(=O)CNC(=O)[C@H](CC(N)=O)NC(=O)[C@H]([C@@H](C)CC)NC2=O)C(C)C` [MeKTx13-3] (H-VGINVKCKHSGQCLKPCKDAGMRFGKCINGKCDCTPK-NH2; disulfide 7-27, 13-32, 17-34; N-terminus and C-terminus assumed) as the compound, how does the Hill coefficient ([1]; KV1.2 concentration–response, mean ± SEM, n ≥ 3) read?
A: 1.3 ± 0.3

Q: What about the inhibition at 0.01 µM [2] of the same compound?
A: ~50%

Q: And the Hill coefficient ([2]; KV1.3 concentration–response, mean ± SEM, n ≥ 3)?
A: 0.8 ± 0.2

Q: What about the Hill coefficient ([3]; KV1.1 concentration–response, mean ± SEM, n ≥ 3) of the same compound?
A: 0.9 ± 0.1

Q: What about the Hill coefficient ([4]; KV1.6 concentration–response) of the same compound?
A: 1.0 ± 0.1

Q: Which inhibition at 0.01 µM ([1]; 10 nM, KV1.2, Xenopus oocytes, read-out: inhibition of potassium current) does the source give for `CC[C@H](C)[C@H](NC(=O)CNC(=O)[C@@H](N)C(C)C)C(=O)N[C@@H](CC(N)=O)C(=O)N[C@H](C(=O)N[C@@H](CCCCN)C(=O)N[C@H]1CSSC[C@@H]2NC(=O)[C@H](CCCCN)NC(=O)CNC(=O)[C@H](Cc3ccccc3)NC(=O)[C@H](CCCNC(=N)N)NC(=O)[C@H](CCSC)NC(=O)CNC(=O)[C@H](C)NC(=O)[C@H](CC(=O)O)NC(=O)[C@H](C)NC(=O)[C@@H]3CSSC[C@@H](C(=O)N[C@H](C(=O)N4CCC[C@H]4C(=O)N[C@@H](CCCCN)C(=O)O)[C@@H](C)O)NC(=O)[C@H](CCCNC(=N)N)NC(=O)[C@H](CSSC[C@H](NC(=O)[C@H](C)NC(=O)CNC(=O)[C@H](CO)NC(=O)[C@H](Cc4c[nH]cn4)NC(=O)[C@H](CCCCN)NC1=O)C(=O)N[C@@H](CC(C)C)C(=O)N[C@@H](C)C(=O)N1CCC[C@H]1C(=O)N3)NC(=O)[C@H](CCCCN)NC(=O)CNC(=O)[C@H](CC(N)=O)NC(=O)[C@H]([C@@H](C)CC)NC2=O)C(C)C` [MeKTx13-3_AAAR] (H-VGINVKCKHSGACLAPCADAGMRFGKCINGKCRCTPK-OH; disulfide 7-27, 13-32, 17-34) here?
A: ~5%

Q: What about the IC50 ([1]; rKV1.2, Xenopus oocytes, two-electrode voltage clamp, ND96 pH 7.4, 18–22°C, 0 mV from −90 mV, mean ± SEM, n ≥ 3) of the same compound?
A: 208 ± 15.2 nM

Q: What about the inhibition at 0.01 µM [2] of the same compound?
A: ~50%

Q: And the IC50 ([2]; hKV1.3, Xenopus oocytes, two-electrode voltage clamp, ND96 pH 7.4, 18–22°C, 0 mV from −90 mV, mean ± SEM, n ≥ 3)?
A: 9.1 ± 0.4 nM

Q: What about the KV1.1/KV1.3 selectivity factor ([2]; ratio of IC50 values KV1.1/KV1.3) of the same compound?
A: 60

Q: What about the IC50 [5] of the same compound?
A: > 1000 nM

Q: And the IC50 [6]?
A: > 1000 nM

Q: And the inhibition at 0.01 µM ([3]; 10 nM, KV1.1, Xenopus oocytes, read-out: inhibition of potassium current)?
A: ~15%

Q: What about the IC50 ([3]; mean ± SEM, n ≥ 3) of the same compound?
A: 541 ± 48.6 nM

Q: And the IC50 ([4]; rKV1.6, Xenopus oocytes, two-electrode voltage clamp, ND96 pH 7.4, 18–22°C, 0 mV from −90 mV)?
A: 1520 ± 183 nM

Q: With `CC[C@H](C)[C@H](NC(=O)CNC(=O)[C@@H](N)C(C)C)C(=O)N[C@@H](CC(N)=O)C(=O)N[C@H](C(=O)N[C@@H](CCCCN)C(=O)N[C@H]1CSSC[C@@H]2NC(=O)[C@H](CCCCN)NC(=O)CNC(=O)[C@H](Cc3ccccc3)NC(=O)[C@H](CCCNC(=N)N)NC(=O)[C@H](CCSC)NC(=O)CNC(=O)[C@H](C)NC(=O)[C@H](CC(=O)O)NC(=O)[C@H](CCCCN)NC(=O)[C@@H]3CSSC[C@@H](C(=O)N[C@H](C(=O)N4CCC[C@H]4C(=O)N[C@@H](CCCCN)C(=O)O)[C@@H](C)O)NC(=O)[C@H](CC(=O)O)NC(=O)[C@H](CSSC[C@H](NC(=O)[C@H](CCC(N)=O)NC(=O)CNC(=O)[C@H](CO)NC(=O)[C@H](Cc4c[nH]cn4)NC(=O)[C@H](CCCCN)NC1=O)C(=O)N[C@@H](CC(C)C)C(=O)N[C@@H](CCCCN)C(=O)N1CCC[C@H]1C(=O)N3)NC(=O)[C@H](CCCCN)NC(=O)CNC(=O)[C@H](CC(N)=O)NC(=O)[C@H]([C@@H](C)CC)NC2=O)C(C)C` [Recombinant MeKTx13-3] (H-VGINVKCKHSGQCLKPCKDAGMRFGKCINGKCDCTPK-OH; disulfide 7-27, 13-32, 17-34) as the compound, how does the inhibition at 0.01 µM [2] read?
A: ~50%

Q: What about the IC50 ([3]; mean ± SEM, n ≥ 3) of the same compound?
A: 6.7 ± 2.7 nM

Q: “MeKTx13-3, natural toxin from Mesobuthus eupeus venom (peptide)” was tested. Which percent of potassium current blocked at 10 nM toxin, two-electrode voltage clamp, X. laevis oocytes [7] did it give?
A: > 95%

Q: What about the IC50 of inhibition of potassium current, two-electrode voltage clamp, X. laevis oocytes [8] of the same compound?
A: 63.4 nM

Q: What about the IC50 of inhibition of potassium current, two-electrode voltage clamp, X. laevis oocytes [9] of the same compound?
A: 106 nM

Q: What about the IC50 of inhibition of potassium current, two-electrode voltage clamp, X. laevis oocytes [10] of the same compound?
A: 1.9 nM

Q: What about the IC50 of inhibition of potassium current, two-electrode voltage clamp, X. laevis oocytes [11] of the same compound?
A: 8.9 nM

Q: Which percent of potassium current blocked at 10 nM toxin, two-electrode voltage clamp, X. laevis oocytes [12] does the source give for Recombinant MeKTx13-3 (peptide) here?
A: 15%

Q: And the percent of potassium current blocked at 10 nM toxin, two-electrode voltage clamp, X. laevis oocytes [13]?
A: 25%

Q: And the percent of potassium current blocked at 10 nM toxin, two-electrode voltage clamp, X. laevis oocytes [7]?
A: > 95%

Q: And the percent of potassium current blocked at 10 nM toxin, two-electrode voltage clamp, X. laevis oocytes [14]?
A: 50%

Q: What about the IC50 of inhibition of potassium current, two-electrode voltage clamp, X. laevis oocytes [15] of the same compound?
A: 6.7 nM
